In US11319299B2, “Substituted carboxamides as inhibitors of WDR5 protein-protein binding” (PROPELLON THERAPEUTICS INC., priority 2016, dated 2022):

Legend:
MV4-11 cells = assay: Cell proliferation assay (ATPlite); assay type: cell-based; settings: Homo sapiens, MV4-11, 120 h; MV-411 cells, five days; read-out: In vitro whole cell potency in MV-411 cells, (IC50)
Description: (iv) Cell Proliferation Assay
MV4-11 cells were seeded into a 96-well plate at 1,000 cells/well in 150 μl medium (Alpha-MEM containing 10% FBS, 100 μg/ml Normocin, and 50 μg/ml Gentamycin, Invitrogen). A HP D300 digital dispenser was used to dose cells with DMSO or test compounds across a 10-point range of concentrations (high dose of 10 μM), and cultures were grown in a humidified 5% CO2 incubator at 37° C. After five days, plates were removed from the incubator and equilibrated to room temperature. An equal volume of ATPlite assay reagent was added to each well, and samples were processed according to manufacturer's instructions (Perkin Elmer). Luminescent signal was measured using an Envision plate reader equipped with a US-Luminescence detector.

WDR5 = WDR5 (Homo sapiens (Human), UniProt P61964); assay: Surface Plasmon Resonance (SPR) assay, KD and residence time; assay type: binding; settings: surface plasmon resonance (SPR); read-out: WDR5 binding affinity (KD)

IC50 (MV4-11 cells) | Molecule | Kd (WDR5)
113 nM | CC1CN(c2cc(F)c(-c3ccc(N4CCOCC4)c(F)c3)cc2NC(=O)c2c[nH]c(=O)cc2C(F)(F)F)CCN1C (stereo in doubt) [Example 201, N-[4-fluoro-5-(3-fluoro-4-morpholin-4-ylphenyl)-2-[(3R)-3,4-dimethylpiperazin-1-yl]phenyl]-6-oxo-4-(trifluoromethyl)-1H-pyridine-3-carboxamide] | –
388 nM | CC1CN(c2cc(F)c(-c3cnc(N4CCOCC4)nc3)cc2NC(=O)c2cn(C)c(=O)cc2C(F)F)CCN1C (stereo in doubt) [Example 216, 4-(difluoromethyl)-N-[4-fluoro-5-(2-morpholin-4-ylpyrimidin-5-yl)-2-[(3R)-3,4-dimethylpiperazin-1-yl]phenyl]-1-methyl-6-oxopyridine-3-carboxamide] | –
881 nM | CN1CCN(c2cc(F)c(-c3ccc4c(c3)OCO4)cc2NC(=O)c2c[nH]c(=O)cc2C(F)(F)F)CC1 [Example 5, N-(5-(benzo[d][1,3]dioxol-5-yl)-4-fluoro-2-(4-methylpiperazin-1-yl)phenyl)-6-oxo-4-(trifluoromethyl)-1,6-dihydropyridine-3-carboxamide] | –
> 10000 nM | CN1CCN(c2cc(F)c(-c3cnc(NC4CC4)nc3)cc2NC(=O)c2c[nH]c(=O)cc2C(F)(F)F)CC1 [Example 10, N-(5-(2-(cyclopropylamino)pyrimidin-5-yl)-4-fluoro-2-(4-methylpiperazin-1-yl)phenyl)-6-oxo-4-(trifluoromethyl)-1,6-dihydropyridine-3-carboxamide] | –
1270 nM | CN1CCN(c2cc(F)c(-c3cnc(NC4CCCCC4)nc3)cc2NC(=O)c2c[nH]c(=O)cc2C(F)(F)F)CC1 [Example 11, N-(5-(2-(cyclohexylamino)pyrimidin-5-yl)-4-fluoro-2-(4-methylpiperazin-1-yl)phenyl)-6-oxo-4-(trifluoromethyl)-1,6-dihydropyridine-3-carboxamide] | –
929 nM | CCOc1ncc(-c2cc(NC(=O)c3c[nH]c(=O)cc3C(F)(F)F)c(N3CCN(C)CC3)cc2F)cn1 [Example 12, N-(5-(2-ethoxypyrimidin-5-yl)-4-fluoro-2-(4-methylpiperazin-1-yl)phenyl)-6-oxo-4-(trifluoromethyl)-1,6-dihydropyridine-3-carboxamide] | –
844 nM | CN1CCN(c2cc(F)c(-c3cnc(C#N)nc3)cc2NC(=O)c2c[nH]c(=O)cc2C(F)(F)F)CC1 [Example 16, N-(5-(2-cyanopyrimidin-5-yl)-4-fluoro-2-(4-methylpiperazin-1-yl)phenyl)-6-oxo-4-(trifluoromethyl)-1,6-dihydropyridine-3-carboxamide] | –
5270 nM | CN1CCN(c2cc(F)c(C3=CCOCC3)cc2NC(=O)c2c[nH]c(=O)cc2C(F)(F)F)CC1 [Example 22, N-[5-(3,6-dihydro-2H-pyran-4-yl)-4-fluoro-2-(4-methylpiperazin-1-yl)phenyl]-6-oxo-4-(trifluoromethyl)-1H-pyridine-3-carboxamide] | –
> 10000 nM | Cc1cc(C(=O)Nc2cc(-c3cnc(N4CCOCC4)nc3)c(F)cc2N2C[C@@H](C)N(C)[C@@H](C)C2)ccc1F [Example 25, 4-fluoro-N-[4-fluoro-5-(2-morpholin-4-ylpyrimidin-5-yl)-2-[(3R,5S)-3,4,5-trimethylpiperazin-1-yl]phenyl]-3-methylbenzamide] | –
> 10000 nM | C[C@@H]1CN(c2cc(F)ccc2NC(=O)c2c[nH]c(=O)cc2C(F)(F)F)C[C@H](C)N1C [Example 26, N-[4-fluoro-2-[(3R,5S)-3,4,5-trimethylpiperazin-1-yl]phenyl]-6-oxo-4-(trifluoromethyl)-1H-pyridine-3-carboxamide] | –
2760 nM | Cc1cc(C(=O)Nc2cc(-c3cnc(N4CCOCC4)nc3)c(F)cc2N2C[C@@H](C)N(C)[C@@H](C)C2)cc(C)c1F [Example 28, 4-fluoro-N-[4-fluoro-5-(2-morpholin-4-ylpyrimidin-5-yl)-2-[(3R,5S)-3,4,5-trimethylpiperazin-1-yl]phenyl]-3,5-dimethylbenzamide] | –

The next lines start with the molecule.

Molecule | IC50 (MV4-11 cells) | Kd (WDR5)
CN1CCN(c2cc(F)c(-c3cccc(CN4CCOCC4)c3)cc2NC(=O)c2c[nH]c(=O)cc2C(F)(F)F)CC1 [Example 2, N-[4-fluoro-2-(4-methylpiperazin-1-yl)-5-[3-(morpholin-4-ylmethyl)phenyl]phenyl]-6-oxo-4-(trifluoromethyl)-1H-pyridine-3-carboxamide] | 2250 nM | –
CN1CCN(c2cc(F)c(-c3ccc(N4CCOCC4)nc3)cc2NC(=O)c2c[nH]c(=O)cc2C(F)(F)F)CC1 [Example 4, N-(4-fluoro-2-(4-methylpiperazin-1-yl)-5-(6-morpholinopyridin-3-yl)phenyl)-6-oxo-4-(trifluoromethyl)-1,6-dihydropyridine-3-carboxamide] | 574 nM | –
CN1CCN(c2cc(F)c(-c3cnc(N4CCCC4)nc3)cc2NC(=O)c2c[nH]c(=O)cc2C(F)(F)F)CC1 [Example 9, N-(4-fluoro-2-(4-methylpiperazin-1-yl)-5-(2-(pyrrolidin-1-yl)pyrimidin-5-yl)phenyl)-6-oxo-4-(trifluoromethyl)-1,6-dihydropyridine-3-carboxamide] | 507 nM | –
Cc1ncc(-c2cc(NC(=O)c3c[nH]c(=O)cc3C(F)(F)F)c(N3CCN(C)CC3)cc2F)cn1 [Example 13, N-(4-fluoro-2-(4-methylpiperazin-1-yl)-5-(2-methylpyrimidin-5-yl)phenyl)-6-oxo-4-(trifluoromethyl)-1,6-dihydropyridine-3-carboxamide] | > 10000 nM | –
CN1CCN(c2cc(F)c(-c3ccc(NC4CCCCC4)nc3)cc2NC(=O)c2c[nH]c(=O)cc2C(F)(F)F)CC1 [Example 14, N-(5-(6-(cyclohexylamino)pyridin-3-yl)-4-fluoro-2-(4-methylpiperazin-1-yl)phenyl)-6-oxo-4-(trifluoromethyl)-1,6-dihydropyridine-3-carboxamide] | 1520 nM | –
CN1CCN(c2cc(F)c(-c3cnc(O)nc3)cc2NC(=O)c2c[nH]c(=O)cc2C(F)(F)F)CC1 [Example 15, N-(4-fluoro-5-(2-hydroxypyrimidin-5-yl)-2-(4-methylpiperazin-1-yl)phenyl)-6-oxo-4-(trifluoromethyl)-1,6-dihydropyridine-3-carboxamide] | > 10000 nM | –
CN1CCN(c2cc(F)c(-c3cnc(N4CCOCC4)nc3)cc2NC(=O)c2c[nH]c(=O)cc2C(F)F)CC1 [Example 20, 4-(difluoromethyl)-N-(4-fluoro-2-(4-methylpiperazin-1-yl)-5-(2-morpholinopyrimidin-5-yl)phenyl)-6-oxo-1,6-dihydropyridine-3-carboxamide] | 604 nM | –
CN(C)C1CCN(c2cc(F)c(-c3cnc(N4CCOCC4)nc3)cc2NC(=O)c2c[nH]c(=O)cc2C(F)(F)F)C1 (stereo not drawn) [Example 21, N-[2-[3-(dimethylamino)pyrrolidin-1-yl]-4-fluoro-5-(2-morpholin-4-ylpyrimidin-5-yl)phenyl]-6-oxo-4-(trifluoromethyl)-1H-pyridine-3-carboxamide] | 271 nM | –
CN1CCN(c2cc(F)c(C3=CCNCC3)cc2NC(=O)c2c[nH]c(=O)cc2C(F)(F)F)CC1 [Example 23, N-[4-fluoro-2-(4-methylpiperazin-1-yl)-5-(1,2,3,6-tetrahydropyridin-4-yl)phenyl]-6-oxo-4-(trifluoromethyl)-1H-pyridine-3-carboxamide] | > 10000 nM | –
CN1CCN(c2cc(F)ccc2NC(=O)c2c[nH]c(=O)cc2C(F)(F)F)CC1 [Example 24, N-[4-fluoro-2-(4-methylpiperazin-1-yl)phenyl]-6-oxo-4-(trifluoromethyl)-1H-pyridine-3-carboxamide] | > 10000 nM | –
C[C@@H]1CN(c2cc(F)c(-c3cc(F)c(C(=O)N(C)C4COC4)c(F)c3)cc2NC(=O)c2c[nH]c(=O)cc2C(F)(F)F)C[C@H](C)N1C [Example 763, 6-oxo-N-(3′,5′,6-trifluoro-4′-(methyl(oxetan-3-yl)carbamoyl)-4-((3S,5R)-3,4,5-trimethylpiperazin-1-yl)-[1,1′-biphenyl]-3-yl)-4-(trifluoromethyl)-1,6-dihydropyridine-3-carboxamide] | – | 0.7 nM
N-[4-fluoro-5-[2-[(2R)-2-propan-2-ylmorpholin-4-yl]pyrimidin-5-yl]-2-[(3S,5R)-3,4,5-trimethylpiperazin-1-yl]phenyl]-6-oxo-4-(trifluoromethyl)-1H-pyridine-3-carboxamide [Example 548] | – | 0.5 nM
N-[4-fluoro-5-[2-[(2R,6S)-2,6-dimethylmorpholin-4-yl]pyrimidin-4-yl]-2-[(3R)-3,4-dimethylpiperazin-1-yl]phenyl]-6-oxo-4-(trifluoromethyl)-1H-pyridine-3-carboxamide [Example 698] | – | 1.59 nM
N-[5-[1-(2-cyanopyrimidin-4-yl)-3,6-dihydro-2H-pyridin-5-yl]-4-fluoro-2-[(3R)-3,4-dimethylpiperazin-1-yl]phenyl]-4-(difluoromethyl)-6-oxo-1H-pyridine-3-carboxamide [Example 740] | – | 4.47 nM
N-[5-[1-(5-cyano-1,3-thiazol-2-yl)-3,6-dihydro-2H-pyridin-4-yl]-4-fluoro-2-[(3R)-3,4-dimethylpiperazin-1-yl]phenyl]-4-fluoro-2-(trifluoromethyl)benzamide [Example 690] | – | 4.17 nM
N-[5-[2-[4-(cyclopropylmethyl)piperazin-1-yl]pyrimidin-5-yl]-4-fluoro-2-[(3R)-3,4-dimethylpiperazin-1-yl]phenyl]-4-fluoro-2-(trifluoromethyl)benzamide [Example 560] | – | 1.12 nM
